# US9034886B2, “4-aminoquinazoline derivatives and uses thereof” (Shanghai Institute of Pharmaceutical Industry, priority 2011, dated 2015)
# Tests used:
# [1] = tested on: HDACs; experiment: In vitro inhibition of HDACs (HDAC Inhibitor Drug Screening Kit, Biovision K340-100); format: biochemical; conditions: for inhibitory activity on HDACs compared with MS-275: concentrations of 2 mM, 200 μM, and 40 μM
# Procedure: The in vitro inhibitory activities of the compounds towards HDACs were tested according to the instructions in the HDAC Inhibitor Drug Screening Kit (Biovision/Catalog #K340-100).
# (1) The compounds to be tested were each individually prepared as 2 mM, 200 μM and 40 μM solutions and their inhibitory activities at these concentrations were tested.
# [2] = tested on: Hut78 T lymphocytic leukemia cells; experiment: In vitro anti-proliferative effect, CCK-8 method, Hut78; format: cell-based; conditions: Homo sapiens, HuT78, read-out: Hut-78 (inhibition %)
# Procedure: (§1) The inhibitory activities of the compounds towards Hut78 T lymphocytic leukemia cells, Jurkat E6-1 human T-cell lymphoma, PANC-1 human pancreatic cancer cells, A549 human lung cancer cells, K562 human chronic myelogenous leukemia cells, Hep3B2.1-7 human liver cancer cells, MDA-MB-435s human breast cancer cells. Colo320 human colorectal cancer cell lines, and PC-3 human prostate cancer at two concentrations of 100 μM and 10 μM were determined. The inhibition percentages were obtained through CCK-8 method.
# [3] = tested on: PC-3 human prostate cancer; experiment: In vitro anti-proliferative effect, CCK-8 method, PC-3; format: cell-based; conditions: Homo sapiens, PC-3 cell strain, CCK-8 method; for inhibition at 10 µM: compound at 10 μM; for inhibition at 100 µM: compound at 100 μM
# Procedure: as §1
# [4] = tested on: Colo320 human colorectal cancer cell lines; experiment: In vitro anti-proliferative effect, CCK-8 method, Colo320; format: cell-based; conditions: Homo sapiens, COLO 320, Colo320 cell strain, CCK-8 method; for inhibition at 10 µM: compound at 10 μM; for inhibition at 100 µM: compound at 100 μM
# Procedure: as §1
# [5] = tested on: Hep3B2.1-7 human liver cancer cells; experiment: In vitro anti-proliferative effect, CCK-8 method, Hep3B; format: cell-based; conditions: Homo sapiens, Hep3B cell strain, CCK-8 method; for inhibition at 10 µM: compound at 10 μM; for inhibition at 100 µM: compound at 100 μM
# Procedure: as §1
# [6] = tested on: A549 human lung cancer cells; experiment: In vitro anti-proliferative effect, CCK-8 method, A549; format: cell-based; conditions: Homo sapiens, A549
# Procedure: as §1
# [7] = tested on: PANC-1 human pancreatic cancer cells; experiment: In vitro anti-proliferative effect, CCK-8 method, PANC-1; format: cell-based; conditions: Homo sapiens, PANC-1
# Procedure: as §1
# [8] = tested on: Jurkat E6-1 human T-cell lymphoma; experiment: In vitro anti-proliferative effect, CCK-8 method, Jurkat E6-1; format: cell-based; conditions: Homo sapiens, Jurkat E6.1
# Procedure: as §1
# [9] = tested on: K562 human chronic myelogenous leukemia cells; experiment: In vitro anti-proliferative effect, CCK-8 method, K562; format: cell-based; conditions: Homo sapiens, K562
# Procedure: as §1
# [10] = tested on: MDA-MB-435s human breast cancer cells; experiment: In vitro anti-proliferative effect, CCK-8 method, MDA-MB-435s; format: cell-based; conditions: Homo sapiens, MDA-MB-435S
# Procedure: as §1
# [11] = target: HDAC1 (Homo sapiens (Human), UniProt Q13547); experiment: In vitro inhibition of subtype HDAC1 (HDAC1 Inhibitor Drug Screening Kit, Biovision); format: biochemical; conditions: for inhibition at 1 µM / inhibition at 10 µM: read-out: % Inhibition towards HDAC1
# Procedure: The in vitro inhibitory activities of the compounds towards the subtype HDAC1 were tested according to the instructions in the HDAC1 Inhibitor Drug Screening Kit (Biovision).
# (1) The compounds to be tested were each individually prepared as 10 μM and 1 μM solutions and their inhibitory activities at these concentrations were tested.
# Each dilution sample was placed in two wells and the enzyme inhibition IC50 of the compound was tested.
# HDAC1, sequence (Q13547 whole entry): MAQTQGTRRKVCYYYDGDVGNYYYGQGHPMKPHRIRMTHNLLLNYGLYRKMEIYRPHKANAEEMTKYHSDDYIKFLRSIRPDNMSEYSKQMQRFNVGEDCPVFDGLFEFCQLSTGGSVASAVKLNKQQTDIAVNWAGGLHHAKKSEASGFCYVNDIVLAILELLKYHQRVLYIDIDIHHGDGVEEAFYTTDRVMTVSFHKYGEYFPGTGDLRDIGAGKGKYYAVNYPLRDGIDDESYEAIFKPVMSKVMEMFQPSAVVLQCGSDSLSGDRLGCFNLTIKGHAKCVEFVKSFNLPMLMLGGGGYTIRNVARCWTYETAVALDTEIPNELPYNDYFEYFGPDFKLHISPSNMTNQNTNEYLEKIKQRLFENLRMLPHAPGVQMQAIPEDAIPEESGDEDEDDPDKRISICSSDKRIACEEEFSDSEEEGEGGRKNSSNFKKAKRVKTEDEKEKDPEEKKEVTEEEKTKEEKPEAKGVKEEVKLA
Structure (SMILES),Inhibition percentage (%) towards HDACs ([1]; 40 μM) [%],Inhibition percentage (%) towards HDACs ([1]; 200 μM) [%],Inhibition percentage (%) towards HDACs ([1]; 2 mM) [%],inhibition at 10 µM [2] [%],inhibition at 100 µM [2] [%],inhibition at 10 µM [3] [%],inhibition at 100 µM [3] [%],inhibition at 10 µM [4] [%],inhibition at 100 µM [4] [%],inhibition at 10 µM [5] [%],inhibition at 100 µM [5] [%],inhibition at 10 µM [6] [%],inhibition at 100 µM [6] [%],inhibition at 10 µM [7] [%],inhibition at 100 µM [7] [%],inhibition at 10 µM [8] [%],inhibition at 100 µM [8] [%],inhibition at 10 µM [9] [%],inhibition at 100 µM [9] [%],inhibition at 10 µM [10] [%],further results
"Nc1ccccc1NC(=O)c1ccc(Nc2ncnc3ccccc23)cc1 [Compound V-1, N-(2-aminophenyl)-4-(quinazoline-4-amino)benzamide]",9.4,19.8,65.2,36,67.2,79.5,91.5,33.7,78.3,2.6,37.4,50.6,89.7,40.2,65.4,48.5,79.3,22.4,30.8,26.7,inhibition at 100 µM [10]: 87.5%
"Nc1ccc(F)cc1NC(=O)c1ccc(Nc2ncnc3ccccc23)cc1 [Compound V-3, N-(2-amino-5-fluorophenyl)-4-(quinazoline-4-amino)benzamide]",9.5,36.0,78.2,18.2,92.9,0.6,36.9,-7.1,47.2,-12.3,59.2,-7.8,72.3,5.7,5.5,27.1,96,51,85.1,4.5,inhibition at 100 µM [10]: 85.5%
"COc1cccc2ncnc(Nc3ccc(C(=O)Nc4ccccc4N)cc3)c12 [Compound V-7, N-(2-aminophenyl)-4-(5-methoxy-quinazoline-4-amino)benzamide]",6.5,22.1,39.2,10.7,60.3,8.1,49.8,8.9,48.5,8.1,53.2,-7.4,24.9,1.1,35.2,26.4,91,29.7,82.6,-16.5,IC50 [1]: 3990 nM; inhibition at 1 µM [11]: 50.1%; inhibition at 10 µM [11]: 78.4%; inhibitory activity against HDAC1 compared with MS-275 ([11]; both concentrations 10 μM and 1 μM): superior to that of MS-275; inhibition at 100 µM [10]: 85.4%
COc1cccc2ncnc(Nc3ccc(C(=O)Nc4ccncc4N)cc3)c12 [Compound V-8],8.9,41.1,46.2,17.5,83.6,29.7,89.3,-1.8,86.4,5,90.4,-5.9,38,-1.8,34.9,36.4,96.3,56.9,94.5,14.2,IC50 [1]: 7760 nM; inhibition at 1 µM [11]: 21.4%; inhibition at 10 µM [11]: 62.7%; inhibition at 100 µM [10]: 94.5%
"COc1cc2ncnc(NCc3ccc(C(=O)Nc4cc(-c5cccs5)ccc4N)cc3)c2cc1OC [Compound V-31, N-[2-amino-5-(2-thienyl)phenyl]-4-[(6,7-dimethoxyquinazoline-4-amino)methyl]benzamide]",3.5,17.3,69.8,28.2,95.8,6.3,38.8,76.3,77,-5,51.7,56.3,88.8,20.8,50.6,62.4,93.7,27.9,67.7,24.2,inhibition at 100 µM [10]: 89.2%
"COc1ccc2c(NCc3ccc(C(=O)Nc4ccccc4N)cc3)ncnc2c1 [Compound V-32, N-(2-aminophenyl)-4-[(7-methoxyquinazoline-4-amino)methyl]benzamide]",2.2,3.1,42.5,,,,,,,,,,,,,,,,,,
"COc1ccc2ncnc(NCc3ccc(C(=O)Nc4ccccc4N)cc3)c2c1 [Compound V-33, N-(2-aminophenyl)-4-[(6-methoxyquinazoline-4-amino)methyl]benzamide]",53.2,66.8,88.8,,,,,,,,,,,,,,,,,,IC50 [1]: 1010 nM; inhibitory activity according to in vitro IC50 value against HDACs compared with MS-275 [1]: better inhibitory activities than MS-275; inhibitory activity on HDACs compared with MS-275 [1]: significantly stronger inhibitory activities than MS-275
"COc1cccc2c(NCc3ccc(C(=O)Nc4cc(F)ccc4N)cc3)ncnc12 [Compound V-35, N-(2-amino-5-fluorophenyl)-4-[(8-methoxyquinazoline-4-amino)methyl]benzamide]",10.1,47.8,81.8,,,,,,,,,,,,,,,,,,
"Nc1ccccc1NC(=O)c1ccc(CNc2ncnc3ccc([N+](=O)[O-])cc23)cc1 [Compound V-37, N-(2-aminophenyl)-4-[(6-nitroquinazoline-4-amino)methyl]benzamide]",24.0,56.1,65.7,,,,,,,,,,,,,,,,,,
"COCCOc1cc2ncnc(NCc3ccc(C(=O)Nc4ccncc4N)cc3)c2cc1OCCOC [Compound V-39, N-(2-amino-4-pyridyl)-4-[(6,7-dimethoxyethoxyquinazoline-4-amino)methyl]benzamide]",34.3,58.0,85.3,,,,,,,,,,,,,,,,,,
COc1cc2ncnc(NCc3ccc(C(=O)Nc4ccncc4N)cc3)c2cc1OCCCN1CCOCC1 [Compound V-42],17.2,46.7,90.6,,,,,,,,,,,,,,,,,,IC50 [1]: 1670 nM; inhibitory activity according to in vitro IC50 value against HDACs compared with MS-275 [1]: better inhibitory activities than MS-275; inhibitory activity on HDACs compared with MS-275 [1]: significantly stronger inhibitory activities than MS-275
"CC(=O)Nc1ccc2ncnc(NCc3ccc(C(=O)Nc4cc(-c5ccco5)ccc4N)cc3)c2c1 [Compound V-48, N-[2-amino-5-(2-furyl)phenyl]-4-[(6-acetamidoquinazoline-4-amino)methyl]benzamide]",14.0,42.2,85.0,75.4,87.4,-16.4,14.8,2.9,17.9,-14,20.5,3.9,9.8,-2.2,51.8,9.7,61.9,20,57.2,10,inhibition at 100 µM [10]: 26.6%
